The text below walks through data of US9988407B2, “Prodrugs of prostate specific membrane antigen (PSMA) inhibitor” (THE JOHNS HOPKINS UNIVERSITY, priority 2014, dated 2018).

Data set [1] can be described thus: In vitro metabolic stability screen in plasma and liver subcellular fractions (results in words). The conditions noted are these: 60 min incubation. The data set is classed as in vitro ADME. Here is the method:
(§1) For metabolic stability, plasma (mouse, dog, monkey and human) and liver microsomes (mouse, dog, monkey and human) were used. For stability, prodrugs (10 μM) were spiked in each matrix and incubated in an orbital shaker at 37° C. At predetermined times (0, 30 and 60 min), 100 μL aliquots of the mixture in triplicate were removed and the reaction quenched by addition of three times the volume of ice cold acetonitrile spiked with the internal standard (losartan 5 μM). The samples were vortexed for 30 s and centrifuged 12000 g for 10 min. 50 μL supernatant diluted with 50 μL water was transferred to a 250 μL polypropylene vial sealed with a Teflon cap. Prodrug disappearance was monitored over time using a liquid chromatography and tandem mass spectrometry (LC/MS/MS) method as described below.
(§2) For LC/MS/MS, prodrugs were separated with Thermo Scientific Accela UPLC system coupled to Accela open autosampler on an Agilent C18 (100×2.1 mm id) UPLC column. The autosampler was temperature controlled and operating at 10° C. The mobile phase used for the chromatographic separation was composed of acetonitrile/water containing 0.1% formic acid and was run at a flow rate of 0.5 mL/minute for 4.5 minutes using gradient elution. The column effluent was monitored using TSQ Vantage triple-quadrupole mass spectrometric detector, equipped with an electrospray probe set in the positive ionization mode. Samples were introduced into the ionization source through a heated nebulized probe (350° C.).
For quantification of compound remaining, disappearance of prodrugs was measured from ratio of peak areas of analyte to IS. Percentage remaining was calculated in the following manner:
In general, the prodrugs were screened by an in vitro metabolic stability screen, and if positive, followed by an in vivo single time point pharmacokinetic study, and in select cases, an in vivo full time course pharmacokinetic study (FIG. 3). In this Example, the four acidic functional groups in 2-PMPA were systematically capped. The carboxylic acids were first masked with simple alkyl esters (Compounds 1, 2, and 3). In vitro chemical and metabolic stability of the prodrugs then were conducted, following 60 min incubation in plasma stability screens for prodrugs.

Data set [2] is described as follows: Metabolic stability in dog liver microsomes. The format is in vitro ADME. As to conditions: 10 μM, 37° C. Here is the method:
as §1, §2
(§3) For quantification of compound remaining, disappearance of prodrugs was measured from ratio of peak areas of analyte to IS. Percentage remaining was calculated in the following manner: […]
(In general: Microsomes from liver hold many membrane-bound enzymes, among them those of drug oxidation.)

Data set [3] is described as follows: In vivo pharmacokinetics in beagle dogs, p.o. The conditions noted are these: 10 mg/kg (equiv 2-PMPA), N=1, single dose. As for the experimental part: (by mouth). Blood samples were collected from the jugular vein (˜1 mL) via direct venipuncture, placed into potassium oxalate with sodium fluoride tubes, and maintained on wet ice until processed. Blood samples were centrifuged at a temperature of 4° C., at 3000×g, for 5 minutes. Blood samples were maintained chilled throughout processing. Plasma was collected in tubes and flash frozen. Samples were stored in a freezer set to maintain −60° C. to −80 OC until further analysis. […] The tissues were stored in −20° C. for 1 h and then homogenized. The calibration curve for the tissues was developed using naïve mouse brains from untreated animals as a matrix. For sciatic nerve, the nerves were weighed and homogenized in 50 μL methanol and the calibration curve was developed using naïve sciatic nerves from untreated animals as a matrix. The samples were vortexed and centrifuged. […] Supernatant was dried under a gentle stream of nitrogen at 45° C. and the residue reconstituted with 75 μL of acetonitrile and vortexed. 25 μL of derivatizing agent N-tert-Butyldimethysilyl-N-methyltrifluoro-acetamide (MTBSTFA) was added to microcentrifuge tubes, vortexed, and heated at ˜60 OC for 40 min. At the end of 40 min, the derivatized samples ˜75 μL were transferred to a 250 μL polypropylene vials and were analyzed via LC/MS/MS. […]

Data set [4] can be described thus: Metabolic stability in human plasma. The format is in vitro ADME. The conditions noted are these: 10 μM, 37° C. The essentials: (§4)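 Prodrugs at 10 μM were incubated in plasma or liver microsomes at 37° C, with triplicate samples taken at 0, 30 and 60 min and quenched in cold acetonitrile. Loss of prodrug was followed by LC/MS/MS in positive electrospray mode. Percent remaining came from the analyte-to-internal-standard peak-area ratio.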

Data set [5] is described as follows: Metabolic stability in mouse plasma. The conditions noted are these: 10 μM, 37° C. The format is in vitro ADME. The essentials:
as §4

Data set [6] can be described thus: Metabolic stability in mouse liver microsomes. The format is in vitro ADME. As to conditions: 10 μM, 37° C. In a few lines: as §4
A short description of data set [7]: Chemical stability in HBSS buffer (pH 7.4) / simulated gastric fluid. The format is physicochemical. As to conditions: chemical hydrolysis / HBSS buffer. In a few lines:
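Prodrugs at 10 μM were incubated at 37° C for 1 h in simulated gastric fluid (pH 1.2) or HBSS (pH 7.4), sampled at 0, 30 and 60 min. Remaining prodrug was quantified by LC/MS/MS (positive ESI) as analyte/internal standard peak-area ratio, expressed as percentage remaining.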

Data set [8] can be described thus: Metabolic stability in dog plasma. The format is in vitro ADME. As to conditions: 10 μM, 37° C. Here is the method: as §1, §2, §3
A short description of data set [9]: In vivo pharmacokinetics in mice, peroral, bioanalysis method 2 (2-PMPA release). As to conditions: rodents and dogs. Here is the method: Blood was obtained via cardiac puncture and tissue dissected at 0 min, 15 min, 30 min, 1 h, 2 h, and 4 h post dose (n=3 per time point). Single time point studies were conducted at 30 min (N=3) following dosing. Plasma was harvested from blood by centrifugation. Mean concentration-time data was used for pharmacokinetic (PK) analysis. Non-compartmental-analysis module in WinNonlin® (version 5.3) was used to assess pharmacokinetic parameters. Peak plasma concentrations (Cmax) and time to Cmax (Tmax) were the observed values. Area under the curve (AUC) was calculated by log-linear (p.o.) trapezoidal rule to the end of sample collection (AUClast) and extrapolated to infinity (AUC0-∞) by dividing the last quantifiable concentration by the terminal disposition rate constant (ke). […] The tissues were stored in −20° C. for 1 h and then homogenized. The calibration curve for the tissues was developed using naïve mouse brains from untreated animals as a matrix. For sciatic nerve, the nerves were weighed and homogenized in 50 μL methanol and the calibration curve was developed using naïve sciatic nerves from untreated animals as a matrix. The samples were vortexed and centrifuged. […] Supernatant was dried under a gentle stream of nitrogen at 45° C. and the residue reconstituted with 75 μL of acetonitrile and vortexed. 25 μL of derivatizing agent N-tert-Butyldimethysilyl-N-methyltrifluoro-acetamide (MTBSTFA) was added to microcentrifuge tubes, vortexed, and heated at ˜60 OC for 40 min. At the end of 40 min, the derivatized samples ˜75 μL were transferred to a 250 μL polypropylene vials and were analyzed via LC/MS/MS. Chromatographic analysis was performed using an Accela™ ultra high-performance system consisting of an analytical pump, and an autosampler coupled with TSQ Vantage mass spectrometer (Thermo Fisher Scientific Inc., Waltham Mass.). […] The total run time for each analyte was 5.0 min. Chromatographic analysis will be performed on Accela UPLC.

Several values for one entry are separate records, joined by “and”; a condition that tells them apart may be missing. Identical values can stand only once.

On to `CC(C)OC(=O)OCOC(=O)C(CCC(=O)O)CP(=O)(OCOC(=O)OC(C)C)OCOC(=O)OC(C)C` (stereo not shown) [Compound 10], for which the “in vitro metabolic stability” value in data set [1] is “instability in plasma and liver subcellular fractions”. The Percentage remaining in [2] (0 min) was 100%; in [2] (30 min), 1%; in [2] (60 min), 0%; in data set [4] (0 min), 100%; in data set [4] (30 min, listed as TRIS-POC), 102% and 64%; in data set [4] (60 min, listed as TRIS-POC), 77% and 48%. The Percentage remaining is 100% in data set [5] (0 min); 1% in [5] (30 min); 0% in [5] (60 min); 100% in data set [6] (0 min); 1% in data set [6] (30 min); 0% in [6] (60 min). For the same compound, the Percentage remaining stood at 100% in [8] (0 min), 67% in data set [8] (30 min) and 28% in data set [8] (60 min). The “Cmax” value in [3] is on record as “high Cmax”. In [7], the “chemical stability” value is given as “sufficient chemical stability”. Moreover, in [9], the “oral bioavailability” value was “excellent oral bioavailability”.
